{
  "source": "paper PMC12067444",
  "about": "“Synthesis and Pharmacological Characterization of Novel Peripheral Cannabinoid-1 Receptor Blockers Based on a Tricyclic Scaffold” (Journal of Medicinal Chemistry, 2025)",
  "key": {"[1]": {"test_system": "TA100", "test": "Mini-Ames assay, strain TA100", "format": "cell-based", "details": "for F value: fold vs DMSO; for Growth of lawn: replicates 1-3", "procedure": "Mini Am es assay. To conduct the assay, top agar was melted with a microwave and maintained at a temper atur e ≥47 °C in a water bath. T he assay was performed using a heat block set to 45 °C ± 2 °C. 12 × 75 mm test tubes were prepared in duplicates. For each concentration, the following components were added sequentially to a test tube:\n[…] The mixture was vortexed and then dispensed into w ells using a dispo sable pipette. The plates wer e then incubated at 37±2 °C for approximately 48 to 72 hours.\nBBbbbb BBBBbbbb BBBB = AAAAbbbbbbAAbb nnnnnnbbbbbb bboo bbbbAAbbbbbbbbnnbbbb oobbbb bbbb eeee dd bbbbbb AAbbbbnn gg AAAAbbbbbbAAbb nnnnnnbbbbbb bbBB bbbbAAbbbbbbbbnnbbbb BBbbbb DDDDDDDD nn bbAAbbbbaaAAbb AAbbbbnnaa The mutagenicity of the compound was determined by evaluating the number of revertant colonies in strains TA98 and TA100. A compound was […]\nrelated and if the fold increase in revertants (F) was equal to or greater than 2 for […]\nbackground lawn growth on the agar plates. A scoring system ranging from 0 to 4 […]\ncomplete cytotoxicity, while scores 1, 2, and 3 represented 25%, 50%, and 75% growth, respectively. A score of 4 signified full '100%' growth. The background […]\nbackground lawn and required magnification for visualization. […]"}, "[2]": {"test": "Stability in simulated intestinal fluid (SIF)", "format": "in vitro ADME"}, "[3]": {"test_system": "mice", "test": "Cataleptic behavior (bar test) induced by WIN-55,212", "format": "in vivo, mouse", "details": "rimonabant 10 mg/kg PO, BNS808 1 mg/kg; 30 min before WIN-55,212 3 mg/kg IP; bar test at 60 min", "procedure": "Catalepsy was assayed using the bar test. Mice were taken out of their home cages, and their forepaws were placed on a horizontal bar measuring 0.5 cm in diameter, positioned 4 cm above the bench surface. Typically, vehicle-treated mice released the bar within 2 s. Cataleptic behavior was defined as the mice remaining motionless, grasping onto the bar, with an arbitrary cutoff of 30 s. The CB1R antagonists, including rimonabant at doses 1 and 10 mg/kg and BNS808 at a dose of 1 mg/kg, were administered 30 min before the IP injection of 3 mg/kg WIN-55,212 (a CB1R agonist). The test was conducted 60 min after the administration of the agonist."}, "[4]": {"test_system": "diet-induced obese C57Bl/6J mice", "test": "Chronic treatment of diet-induced obese (DIO) mice", "format": "in vivo, mouse", "details": "vs vehicle", "procedure": "To induce diet-induced obesity, the mice were fed a high-fat diet (HFD) containing 60% of calories from fat, 20% from protein, and 20% carbohydrates (Research Diet, D12492) for 16 weeks. HFD-fed obese mice were administered either vehicle or BNS808 (in SEDDs) orally at 1 mg/kg (dosing volume of 1 mL/kg) for 24 days. Daily monitoring of body weight was conducted throughout the experimental period. Total body fat and lean masses were assessed using the EchoMRI-100H (Echo Medical Systems LLC, Houston, TX, USA). At the end of week 20, mice were euthanized via cervical dislocation under anesthesia. Various tissues, including the kidneys, brain, liver, fat pads, and muscles, were harvested and snap-frozen or fixed in buffered 4% formalin. Trunk blood samples were collected for biochemical parameters analysis. […]"}},
  "data": [
    {"smiles": "O=S(=O)(NC1CCCOc2c1nn(-c1ccccc1Cl)c2-c1ccc(Cl)cc1)c1ccc(Cl)cc1", "note": "(stereo not drawn) [BNS808, 4-chloro-N-[2-(2-chlorophenyl)-3-(4-chlorophenyl)-5,6,7,8-tetrahydrooxepino[3,2-c]pyrazol-8-yl]benzenesulfonamide]", "values": [
      {"measurement": "Number of revertants MEAN", "setting": "[1]; TA100, +S9, 31.25 μg/well", "value": 40.67},
      {"measurement": "solubility", "setting": "[1]; TA100, +S9, 31.25 μg/well", "value": "P0"},
      {"measurement": "F value", "setting": "[1]; TA100, +S9, 31.25 μg/well", "value": 1.03},
      {"measurement": "Growth of lawn", "setting": "[1]; TA100, +S9, 31.25 μg/well", "value": "4 (A score of 4 signified full '100%' growth)"},
      {"measurement": "Number of revertants MEAN", "setting": "[1]; TA100, +S9, 62.5 μg/well", "value": 34.67},
      {"measurement": "solubility", "setting": "[1]; TA100, +S9, 62.5 μg/well", "value": "P0"},
      {"measurement": "F value", "setting": "[1]; TA100, +S9, 62.5 μg/well", "value": 0.87},
      {"measurement": "Growth of lawn", "setting": "[1]; TA100, +S9, 62.5 μg/well", "value": "4 (A score of 4 signified full '100%' growth)"},
      {"measurement": "Number of revertants MEAN", "setting": "[1]; TA100, +S9, 125 μg/well", "value": 30.00},
      {"measurement": "solubility", "setting": "[1]; TA100, +S9, 125 μg/well", "value": "P0"},
      {"measurement": "F value", "setting": "[1]; TA100, +S9, 125 μg/well", "value": 0.76},
      {"measurement": "Growth of lawn", "setting": "[1]; TA100, +S9, 125 μg/well", "value": "4 (A score of 4 signified full '100%' growth)"},
      {"measurement": "Number of revertants MEAN", "setting": "[1]; TA100, +S9, 250 μg/well", "value": 29.33},
      {"measurement": "solubility", "setting": "[1]; TA100, +S9, 250 μg/well", "value": "P1 (0~20% growth of crystals)"},
      {"measurement": "F value", "setting": "[1]; TA100, +S9, 250 μg/well", "value": 0.74},
      {"measurement": "Growth of lawn", "setting": "[1]; TA100, +S9, 250 μg/well", "value": "4 (A score of 4 signified full '100%' growth)"},
      {"measurement": "Number of revertants MEAN", "setting": "[1]; TA100, +S9, 500 μg/well", "value": 19.33},
      {"measurement": "solubility", "setting": "[1]; TA100, +S9, 500 μg/well", "value": "P2 (20%~60% growth of crystals)"},
      {"measurement": "F value", "setting": "[1]; TA100, +S9, 500 μg/well", "value": 0.49},
      {"measurement": "Growth of lawn", "setting": "[1]; TA100, +S9, 500 μg/well", "value": "4 (A score of 4 signified full '100%' growth)"},
      {"measurement": "Number of revertants MEAN", "setting": "[1]; TA100, +S9, 1000 μg/well", "value": 16.67},
      {"measurement": "solubility", "setting": "[1]; TA100, +S9, 1000 μg/well", "value": "P3 (60%~100% growth of crystals)"},
      {"measurement": "F value", "setting": "[1]; TA100, +S9, 1000 μg/well", "value": 0.42},
      {"measurement": "Growth of lawn", "setting": "[1]; TA100, +S9, 1000 μg/well", "value": "4 (A score of 4 signified full '100%' growth)"},
      {"measurement": "Number of revertants MEAN", "setting": "[1]; TA100, -S9, 31.25 μg/well", "value": 29.00},
      {"measurement": "solubility", "setting": "[1]; TA100, -S9, 31.25 μg/well", "value": "P0"},
      {"measurement": "F value", "setting": "[1]; TA100, -S9, 31.25 μg/well", "value": 0.97},
      {"measurement": "Growth of lawn", "setting": "[1]; TA100, -S9, 31.25 μg/well", "value": "4 (A score of 4 signified full '100%' growth)"},
      {"measurement": "Number of revertants MEAN", "setting": "[1]; TA100, -S9, 62.5 μg/well", "value": 23.67},
      {"measurement": "solubility", "setting": "[1]; TA100, -S9, 62.5 μg/well", "value": "P0"},
      {"measurement": "F value", "setting": "[1]; TA100, -S9, 62.5 μg/well", "value": 0.79},
      {"measurement": "Growth of lawn", "setting": "[1]; TA100, -S9, 62.5 μg/well", "value": "4 (A score of 4 signified full '100%' growth)"},
      {"measurement": "Number of revertants MEAN", "setting": "[1]; TA100, -S9, 125 μg/well", "value": 22.67},
      {"measurement": "solubility", "setting": "[1]; TA100, -S9, 125 μg/well", "value": "P0"},
      {"measurement": "F value", "setting": "[1]; TA100, -S9, 125 μg/well", "value": 0.76},
      {"measurement": "Growth of lawn", "setting": "[1]; TA100, -S9, 125 μg/well", "value": "4 (A score of 4 signified full '100%' growth)"},
      {"measurement": "Number of revertants MEAN", "setting": "[1]; TA100, -S9, 250 μg/well", "value": 23.00},
      {"measurement": "solubility", "setting": "[1]; TA100, -S9, 250 μg/well", "value": "P1 (0~20% growth of crystals)"},
      {"measurement": "F value", "setting": "[1]; TA100, -S9, 250 μg/well", "value": 0.77},
      {"measurement": "Growth of lawn", "setting": "[1]; TA100, -S9, 250 μg/well", "value": "4 (A score of 4 signified full '100%' growth)"},
      {"measurement": "Number of revertants MEAN", "setting": "[1]; TA100, -S9, 500 μg/well", "value": 18.67},
      {"measurement": "solubility", "setting": "[1]; TA100, -S9, 500 μg/well", "value": "P2 (20%~60% growth of crystals)"},
      {"measurement": "F value", "setting": "[1]; TA100, -S9, 500 μg/well", "value": 0.62},
      {"measurement": "Growth of lawn", "setting": "[1]; TA100, -S9, 500 μg/well", "value": "4 (A score of 4 signified full '100%' growth)"},
      {"measurement": "amount in SIF with pancreatin", "setting": "[2]; 0 h", "value": 2.972, "unit": "mg"},
      {"measurement": "amount in SIF, no pancreatin", "setting": "[2]; 0 h", "value": 3.257, "unit": "mg"},
      {"measurement": "Initial amount (%) in SIF with pancreatin", "setting": "[2]; 1 h", "value": 102, "unit": "%"},
      {"measurement": "Initial amount (%) in SIF, no pancreatin", "setting": "[2]; 1 h", "value": 101, "unit": "%"},
      {"measurement": "amount in SIF with pancreatin", "setting": "[2]; 1 h", "value": 3.023, "unit": "mg"},
      {"measurement": "amount in SIF, no pancreatin", "setting": "[2]; 1 h", "value": 3.277, "unit": "mg"},
      {"measurement": "Initial amount (%) in SIF with pancreatin", "setting": "[2]; 3 h", "value": 101, "unit": "%"},
      {"measurement": "Initial amount (%) in SIF, no pancreatin", "setting": "[2]; 3 h", "value": 100, "unit": "%"},
      {"measurement": "amount in SIF with pancreatin", "setting": "[2]; 3 h", "value": 3.0009, "unit": "mg"},
      {"measurement": "amount in SIF, no pancreatin", "setting": "[2]; 3 h", "value": 3.266, "unit": "mg"},
      {"measurement": "Stability in SIF", "setting": "[2]; with and without pancreatin", "value": "Stable"},
      {"measurement": "blockade of WIN-55,212-induced cataleptic behavior", "setting": "[3]", "value": "only rimonabant (10 mg/kg, PO) blocked the cataleptic behavior"},
      {"measurement": "body weight", "setting": "[4]; 1 mg/kg/day PO (in SEDDs) for 24 days", "value": "reduced body weight"},
      {"measurement": "fasting blood glucose", "setting": "[4]; 1 mg/kg/day PO for 24 days", "value": "reduced the glucose levels in fasting conditions"},
      {"measurement": "glucose homeostasis (ipGTT)", "setting": "[4]; 1 mg/kg/day PO for 24 days", "value": "trend toward substantial effects"},
      {"measurement": "lean body mass (EchoMRI)", "setting": "[4]; 1 mg/kg/day PO for 24 days", "value": "significant increase in lean body mass"},
      {"measurement": "total body fat (EchoMRI)", "setting": "[4]; 1 mg/kg/day PO for 24 days", "value": "reduction in total body fat"},
      {"measurement": "HDL levels", "setting": "[4]; 1 mg/kg/day for 24 days", "value": "without affecting HDL levels"},
      {"measurement": "HDL/LDL ratio", "setting": "[4]; 1 mg/kg/day for 24 days", "value": "increased HDL/LDL ratio"},
      {"measurement": "LDL levels", "setting": "[4]; 1 mg/kg/day for 24 days", "value": "reduced LDL levels"},
      {"measurement": "hepatic steatosis and hepatocellular damage (histology)", "setting": "[4]; 1 mg/kg/day for 24 days", "value": "reversing hepatic steatosis and hepatocellular damage"},
      {"measurement": "liver enzymes (ALT, AST, ALP)", "setting": "[4]; 1 mg/kg/day for 24 days", "value": "significant reduction"},
      {"measurement": "liver triglyceride content", "setting": "[4]; 1 mg/kg/day for 24 days", "value": "significant reduction in liver triglyceride content"},
      {"measurement": "total cholesterol", "setting": "[4]; 1 mg/kg/day for 24 days", "value": "reduced total cholesterol"},
      {"measurement": "triglycerides levels (serum)", "setting": "[4]; 1 mg/kg/day for 24 days", "value": "reduced"}
    ]}
  ]
}
